From ChEMBL document CHEMBL1201862, “PubChem BioAssay data set” (2004)
Calls of active or inactive are those of the source.

Legend:
Bcl-2-like protein 10 = biological target: T1, Bcl-2-like protein 10 (Homo sapiens, UniProt Q9HD36); test: Biochemical TR3 FP assay of Bcl-B inhibitor potency, EC50 (AID 1243); format: functional
T1 sequence (Q9HD36 whole entry): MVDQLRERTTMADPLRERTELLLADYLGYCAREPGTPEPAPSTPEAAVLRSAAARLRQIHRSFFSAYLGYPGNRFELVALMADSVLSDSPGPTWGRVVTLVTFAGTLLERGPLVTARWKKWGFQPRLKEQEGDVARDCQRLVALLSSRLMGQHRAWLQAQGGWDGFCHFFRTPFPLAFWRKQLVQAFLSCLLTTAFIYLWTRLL

[1] = biological target: Neuropeptide Y receptor type 2 (Homo sapiens, UniProt P49146); test: NPY-Y2 antagonist potency, selectivity check, dose response, counter-screen for NPY-Y1 antagonist project, cell-based (AID 1278); format: functional
Chain of Neuropeptide Y receptor type 2 (P49146 whole entry): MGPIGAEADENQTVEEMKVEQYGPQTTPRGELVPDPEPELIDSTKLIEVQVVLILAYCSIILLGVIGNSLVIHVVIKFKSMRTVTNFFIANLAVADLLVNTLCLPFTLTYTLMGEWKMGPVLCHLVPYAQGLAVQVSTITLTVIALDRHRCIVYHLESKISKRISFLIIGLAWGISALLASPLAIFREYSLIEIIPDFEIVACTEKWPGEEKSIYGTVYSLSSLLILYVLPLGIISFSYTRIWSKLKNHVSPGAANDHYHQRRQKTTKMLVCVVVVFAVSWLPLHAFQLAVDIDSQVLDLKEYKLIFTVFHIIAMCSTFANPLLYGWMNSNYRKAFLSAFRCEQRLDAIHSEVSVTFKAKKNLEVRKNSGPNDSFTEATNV

[2] = biological target: Neuropeptide Y receptor type 1 (Homo sapiens, UniProt P25929); test: NPY-Y1 receptor antagonist potency, dose response, cell-based (AID 1277); format: functional
Chain of Neuropeptide Y receptor type 1 (P25929 whole entry): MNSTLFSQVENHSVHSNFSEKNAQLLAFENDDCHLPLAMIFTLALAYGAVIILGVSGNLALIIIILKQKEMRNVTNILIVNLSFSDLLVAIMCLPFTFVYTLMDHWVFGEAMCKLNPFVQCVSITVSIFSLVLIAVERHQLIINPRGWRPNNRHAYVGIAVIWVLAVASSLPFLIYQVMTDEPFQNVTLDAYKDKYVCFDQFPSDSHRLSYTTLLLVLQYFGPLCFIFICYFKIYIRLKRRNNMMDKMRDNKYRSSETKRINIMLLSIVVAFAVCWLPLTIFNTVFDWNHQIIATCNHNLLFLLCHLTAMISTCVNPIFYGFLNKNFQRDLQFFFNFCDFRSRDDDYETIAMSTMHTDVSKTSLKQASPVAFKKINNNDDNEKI

HeLa = test: Cytotoxicity counterscreen assay for transcriptional activators of heat shock protein 70 (Hsp70). [Related pubchem assays: 1203, 1252 ]; format: functional; settings: Homo sapiens;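 note: cells exposed to compound for 16 hours before readout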
[3] = inhibitors of firefly luciferase expression or activity, dose response, H4 neuroglioma cells, luminescence (AID 1990); format: functional, cell-based
[4] = test system: Streptococcus sp. 'group A'; test: growth inhibition of control SK(-) GAS strain, dose response, counter-screen for streptokinase expression inhibitor project, luminescence, kanamycin, BacTiterGlo, confirmation (AID 1900); format: functional, organism-based
[5] = Luminescence Cell-Based Dose Response HTS to Identify Inhibitors of 5'UTR Stem-Loop Driven Prion Protein mRNA Translation in H4 Neuroglioblastoma Cells. [Related pubchem assays: 1827 (Project Summary), 1813 (Primary HTS)]; format: functional
[6] = inhibitors of SNCA 5'UTR-driven reporter translation, confirmation, H4 neuroglioma cells, luminescence (AID 1988); format: functional, cell-based
Streptokinase A = biological target: T2, Streptokinase A (Streptococcus pyogenes serotype M1, UniProt P10520); test: S. pyogenes streptokinase expression inhibitors, potency, dose response, plasminogen activation absorbance, OD405 (AID 1914); format: functional, Streptococcus pyogenes M1 GAS;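 note: secreted streptokinase activity via plasminogen activation per viability signal from cell pellet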
T2 sequence (P10520 whole entry): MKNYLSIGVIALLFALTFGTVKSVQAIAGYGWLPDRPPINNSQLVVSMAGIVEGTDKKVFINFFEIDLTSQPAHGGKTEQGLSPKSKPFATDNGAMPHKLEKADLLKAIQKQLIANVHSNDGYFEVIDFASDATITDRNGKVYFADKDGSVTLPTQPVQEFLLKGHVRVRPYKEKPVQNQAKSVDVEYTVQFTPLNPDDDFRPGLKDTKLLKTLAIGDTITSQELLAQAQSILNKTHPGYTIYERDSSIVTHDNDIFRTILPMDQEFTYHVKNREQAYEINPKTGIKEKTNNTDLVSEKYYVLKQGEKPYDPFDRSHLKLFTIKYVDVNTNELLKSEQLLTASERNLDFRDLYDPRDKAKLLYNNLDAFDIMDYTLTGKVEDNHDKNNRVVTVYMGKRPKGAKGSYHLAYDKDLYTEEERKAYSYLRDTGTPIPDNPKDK

BJ [7] = test: cells; format: functional, cell-based; settings: Homo sapiens
Estrogen receptor = biological target: T3, Estrogen receptor (Homo sapiens, UniProt P03372);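 note: potency for inhibiting coactivator peptide recruitment to the receptor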
T3 sequence (P03372 whole entry): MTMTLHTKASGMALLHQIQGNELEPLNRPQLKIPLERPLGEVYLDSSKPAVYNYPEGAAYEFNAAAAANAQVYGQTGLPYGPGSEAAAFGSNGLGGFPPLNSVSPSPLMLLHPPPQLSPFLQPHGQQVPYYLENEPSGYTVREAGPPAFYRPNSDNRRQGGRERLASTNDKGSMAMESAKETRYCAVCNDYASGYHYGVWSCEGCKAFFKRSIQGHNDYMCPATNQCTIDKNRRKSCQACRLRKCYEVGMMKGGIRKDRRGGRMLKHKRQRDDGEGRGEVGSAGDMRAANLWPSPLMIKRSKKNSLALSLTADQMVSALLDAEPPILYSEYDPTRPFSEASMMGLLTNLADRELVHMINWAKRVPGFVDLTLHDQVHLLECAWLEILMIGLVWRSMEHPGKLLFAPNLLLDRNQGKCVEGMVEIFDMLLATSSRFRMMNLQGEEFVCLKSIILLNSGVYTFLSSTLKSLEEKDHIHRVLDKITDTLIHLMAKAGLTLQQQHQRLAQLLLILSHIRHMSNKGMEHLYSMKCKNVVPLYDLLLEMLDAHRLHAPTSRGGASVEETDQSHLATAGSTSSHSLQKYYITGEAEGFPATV

[8] = biological target: Mothers against decapentaplegic homolog 3 (Homo sapiens, UniProt P84022); test: SMAD3 transcription factor inhibitors, dose response (AID 715); format: functional
Chain of Mothers against decapentaplegic homolog 3 (P84022 whole entry): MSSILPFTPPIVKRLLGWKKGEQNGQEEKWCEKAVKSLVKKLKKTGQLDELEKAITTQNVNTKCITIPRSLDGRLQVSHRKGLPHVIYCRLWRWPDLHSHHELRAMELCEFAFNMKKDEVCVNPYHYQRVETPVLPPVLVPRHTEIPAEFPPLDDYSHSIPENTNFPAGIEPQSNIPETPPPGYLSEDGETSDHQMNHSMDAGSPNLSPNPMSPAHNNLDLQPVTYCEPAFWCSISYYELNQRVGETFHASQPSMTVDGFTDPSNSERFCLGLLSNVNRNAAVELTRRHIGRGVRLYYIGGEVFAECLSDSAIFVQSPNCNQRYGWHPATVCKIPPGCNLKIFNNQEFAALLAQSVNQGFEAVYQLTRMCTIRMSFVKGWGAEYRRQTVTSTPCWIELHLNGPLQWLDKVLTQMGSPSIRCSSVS

BJ [9] = test: cytotoxicity toward BJ-TERT-LT-ST fibroblasts, dose response, cell-based, RAS-independent, luminescence (AID 1935); format: functional; settings: Homo sapiens;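 note: BJ fibroblasts immortalized with TERT plus LT and ST oncogenes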
[10] = cytotoxicity toward DRD oncogenic fibroblasts, dose response, cell-based, non-viral oncogenic, luminescence (AID 1934); format: functional; settings: Homo sapiens
Streptococcus = test: Group A Streptococcus viability loss, dose response, counter-screen for streptokinase expression inhibitor project, luminescence, BacTiterGlo (AID 1915); format: functional, organism-based;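 note: potency for reduction of bacterial viability or growth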
BJ [11] = test: cytotoxicity toward Ras-transformed BJeLR fibroblasts, dose response, cell-based, alamar blue fluorescence, cherrypicked samples (AID 2631); format: functional; settings: Homo sapiens;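 note: confirmatory dose-response assay in RAS-dependent BJ fibroblasts engineered with TERT, LT and ST, with cytotoxicity read by fluorescence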
Aminopeptidase N = biological target: T4, Aminopeptidase N (Plasmodium falciparum FcB1/Columbia, UniProt O96935); test: P. falciparum M1AAP inhibitors, biochemical, fluorogenic H-Leu-NHMec substrate, 1536-well (AID 1445); set-up: species or system Plasmodium falciparum 3D7, 3D7
T4 sequence (O96935 whole entry): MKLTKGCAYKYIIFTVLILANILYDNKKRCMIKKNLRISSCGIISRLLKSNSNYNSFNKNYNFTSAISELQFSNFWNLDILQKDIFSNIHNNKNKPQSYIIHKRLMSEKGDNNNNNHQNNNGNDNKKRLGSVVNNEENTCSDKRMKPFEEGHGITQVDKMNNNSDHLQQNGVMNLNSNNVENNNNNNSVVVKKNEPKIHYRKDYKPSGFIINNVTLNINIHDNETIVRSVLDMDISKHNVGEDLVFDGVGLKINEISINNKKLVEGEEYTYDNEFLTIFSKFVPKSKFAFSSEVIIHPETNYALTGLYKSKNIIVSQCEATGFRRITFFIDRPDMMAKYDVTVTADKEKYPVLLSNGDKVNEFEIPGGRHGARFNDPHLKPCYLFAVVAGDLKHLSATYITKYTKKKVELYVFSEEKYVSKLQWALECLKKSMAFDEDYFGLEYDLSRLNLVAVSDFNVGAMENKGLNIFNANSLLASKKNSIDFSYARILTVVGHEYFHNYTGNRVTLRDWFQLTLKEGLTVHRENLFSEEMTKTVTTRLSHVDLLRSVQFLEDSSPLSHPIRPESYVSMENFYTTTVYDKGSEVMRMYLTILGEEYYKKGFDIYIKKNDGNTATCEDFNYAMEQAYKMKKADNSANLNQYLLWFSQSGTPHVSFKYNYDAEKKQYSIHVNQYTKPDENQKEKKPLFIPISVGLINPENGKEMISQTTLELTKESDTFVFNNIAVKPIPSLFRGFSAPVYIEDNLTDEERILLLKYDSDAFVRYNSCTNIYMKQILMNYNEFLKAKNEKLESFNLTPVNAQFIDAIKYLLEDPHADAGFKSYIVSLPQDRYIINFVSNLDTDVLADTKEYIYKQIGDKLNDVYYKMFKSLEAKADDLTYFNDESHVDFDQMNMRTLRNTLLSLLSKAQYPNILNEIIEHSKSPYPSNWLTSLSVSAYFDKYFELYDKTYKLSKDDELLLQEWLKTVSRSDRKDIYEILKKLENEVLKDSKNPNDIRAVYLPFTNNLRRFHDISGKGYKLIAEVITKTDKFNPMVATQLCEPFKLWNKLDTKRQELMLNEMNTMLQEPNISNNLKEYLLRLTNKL

[12] = HIV-1 Env-mediated cell fusion inhibitors, dose response, CCR5-tropic Env (AID 2279); format: functional
Cysteine protease ATG4B = biological target: T5, Cysteine protease ATG4B (Homo sapiens, UniProt Q9Y4P1); format: functional;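 note: Fluorescence-based dose-response confirmation assay measuring inhibition of ATG4B activity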
T5 sequence (Q9Y4P1 whole entry): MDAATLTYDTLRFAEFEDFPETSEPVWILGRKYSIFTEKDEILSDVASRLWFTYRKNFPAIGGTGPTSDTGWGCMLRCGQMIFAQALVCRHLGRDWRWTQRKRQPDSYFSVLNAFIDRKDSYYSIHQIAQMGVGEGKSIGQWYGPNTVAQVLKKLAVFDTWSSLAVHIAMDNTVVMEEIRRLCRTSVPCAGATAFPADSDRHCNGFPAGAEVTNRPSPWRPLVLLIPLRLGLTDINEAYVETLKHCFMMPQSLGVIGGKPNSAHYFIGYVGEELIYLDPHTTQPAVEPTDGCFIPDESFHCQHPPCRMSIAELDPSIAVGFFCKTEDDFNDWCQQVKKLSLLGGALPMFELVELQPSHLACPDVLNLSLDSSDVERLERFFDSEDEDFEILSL

Phospholipase A2 = Phospholipase A2 (Homo sapiens, UniProt P04054); format: functional;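 note: confirmatory dose-response counterscreen on phospholipase A2, testing hits that came from an ultra-high-throughput screen for ATG4B inhibitors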
Chain of Phospholipase A2 (P04054 whole entry): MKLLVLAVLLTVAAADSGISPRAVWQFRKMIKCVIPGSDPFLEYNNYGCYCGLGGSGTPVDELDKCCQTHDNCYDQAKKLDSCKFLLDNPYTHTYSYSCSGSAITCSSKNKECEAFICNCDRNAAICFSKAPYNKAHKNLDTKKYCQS

[13] = biological target: T6, Corticotropin-releasing factor receptor 2/Corticotropin-releasing factor-binding protein (Homo sapiens, UniProt P24387+Q13324); test: Dose Response confirmation of uHTS hits for small molecule antagonists of the CRF-binding protein and CRF-R2 receptor complex.; format: functional; settings: read-out: IC50_Mean
T6 sequence (Q13324 whole entry): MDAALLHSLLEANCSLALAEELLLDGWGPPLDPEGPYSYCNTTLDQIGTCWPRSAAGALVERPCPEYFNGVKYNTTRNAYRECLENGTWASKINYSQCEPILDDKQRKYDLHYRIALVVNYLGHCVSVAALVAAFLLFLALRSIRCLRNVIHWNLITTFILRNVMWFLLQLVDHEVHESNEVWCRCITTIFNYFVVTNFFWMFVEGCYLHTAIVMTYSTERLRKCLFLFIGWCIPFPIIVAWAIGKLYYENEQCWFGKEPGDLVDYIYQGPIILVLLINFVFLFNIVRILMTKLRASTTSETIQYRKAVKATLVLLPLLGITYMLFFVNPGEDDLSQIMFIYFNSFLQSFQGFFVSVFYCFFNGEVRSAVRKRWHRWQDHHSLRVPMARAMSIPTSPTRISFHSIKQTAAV
T6 sequence (P24387 whole entry): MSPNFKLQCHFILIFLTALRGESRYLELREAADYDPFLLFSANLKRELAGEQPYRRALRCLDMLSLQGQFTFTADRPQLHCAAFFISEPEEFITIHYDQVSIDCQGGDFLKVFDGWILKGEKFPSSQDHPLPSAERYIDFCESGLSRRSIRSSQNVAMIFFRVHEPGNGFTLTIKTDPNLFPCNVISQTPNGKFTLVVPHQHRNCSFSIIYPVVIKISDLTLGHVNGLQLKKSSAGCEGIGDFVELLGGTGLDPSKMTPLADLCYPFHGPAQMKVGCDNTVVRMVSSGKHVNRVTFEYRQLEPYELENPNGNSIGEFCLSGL

[14] = biological target: T6, Corticotropin-releasing factor receptor 2/Corticotropin-releasing factor-binding protein; test: activators of CRF receptor 2 with binding protein – uHTS hits, confirmation (AID 602473); format: functional; settings: read-out: EC50_Mean
[15] = CRF-BP/CRF-R2 complex antagonists, dose response, cell-based, uHTS hits, 384-well (AID 651639); format: functional, Homo sapiens; settings: read-out: IC50_Mean
NS3 = NS3 (Hepatitis C virus, UniProt A3EZJ3); test: PubChem AID 2173; set-up: species or system Hepacivirus hominis
Chain of NS3 (A3EZJ3 whole entry): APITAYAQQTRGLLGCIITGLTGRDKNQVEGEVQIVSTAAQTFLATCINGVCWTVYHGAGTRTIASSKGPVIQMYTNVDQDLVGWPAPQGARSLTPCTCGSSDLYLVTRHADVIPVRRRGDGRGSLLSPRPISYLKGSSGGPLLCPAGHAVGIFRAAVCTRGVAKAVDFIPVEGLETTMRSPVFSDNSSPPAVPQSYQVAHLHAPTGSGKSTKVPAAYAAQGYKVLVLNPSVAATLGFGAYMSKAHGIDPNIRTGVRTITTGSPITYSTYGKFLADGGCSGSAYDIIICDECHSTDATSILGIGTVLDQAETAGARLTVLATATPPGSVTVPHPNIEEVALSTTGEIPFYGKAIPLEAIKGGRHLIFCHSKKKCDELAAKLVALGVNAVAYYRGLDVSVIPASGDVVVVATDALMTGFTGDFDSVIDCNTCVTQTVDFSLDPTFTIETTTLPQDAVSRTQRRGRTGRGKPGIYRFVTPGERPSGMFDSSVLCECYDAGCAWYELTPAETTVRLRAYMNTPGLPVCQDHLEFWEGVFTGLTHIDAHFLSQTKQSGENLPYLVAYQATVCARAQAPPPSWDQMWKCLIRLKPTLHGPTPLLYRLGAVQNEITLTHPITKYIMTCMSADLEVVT

[16] = M. tuberculosis growth inhibition, HTS (AID 449762); format: functional
[17] = biological target: T7, Heat shock factor protein 1 (Mus musculus, UniProt P38532); test: HSF1 potentiators in luciferase reporter cells, confirmation, cell-based, NIH3T3, luminescence, dose retest (AID 435004); format: functional;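 note: stress induced by proteasome inhibitor MG132 added 30 min after compound; luciferase reporter driven by HSF1 response element in NIH3T3 cells; actives raise luminescence as potentiators of the MG132 stress response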
T7 sequence (P38532 whole entry): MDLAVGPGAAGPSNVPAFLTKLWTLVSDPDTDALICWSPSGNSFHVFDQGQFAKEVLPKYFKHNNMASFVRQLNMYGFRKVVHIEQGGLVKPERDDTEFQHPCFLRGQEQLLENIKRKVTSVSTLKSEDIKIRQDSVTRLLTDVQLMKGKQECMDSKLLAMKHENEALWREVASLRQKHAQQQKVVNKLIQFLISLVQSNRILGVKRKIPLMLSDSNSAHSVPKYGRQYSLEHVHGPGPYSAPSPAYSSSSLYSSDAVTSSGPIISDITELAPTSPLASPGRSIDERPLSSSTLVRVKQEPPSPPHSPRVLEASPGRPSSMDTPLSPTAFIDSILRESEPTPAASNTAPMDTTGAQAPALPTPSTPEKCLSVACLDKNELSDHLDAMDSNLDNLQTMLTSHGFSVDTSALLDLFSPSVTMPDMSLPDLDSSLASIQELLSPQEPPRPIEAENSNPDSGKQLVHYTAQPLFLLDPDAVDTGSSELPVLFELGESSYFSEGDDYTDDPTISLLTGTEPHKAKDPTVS

O=C1C=CC(=O)C(/C(=C/NCc2ccccc2)[N+](=O)[O-])=C1
EC50 (Bcl-2-like protein 10): 5.7 µM (active)

Cc1nn(-c2ccccc2)c2sc(C(=O)O)cc12
IC50 [1]: > 35 µM (not active) | IC50 [2]: > 35 µM (not active)

Cn1c(CCN2CCOCC2)nc2cc(NC(=O)COc3ccc(Cl)cc3)ccc21
CC50 (HeLa): > 99 µM (not active)

CCOC(=O)c1c2c(n(C)c1COC)C(=O)C(=O)c1ccc(Br)cc1-2
EC50 [3]: 4.87 µM (active) | EC50 [4]: 1.13 µM (active) | EC50 [5]: 5.16 µM (active) | EC50 [6]: 1.44 µM (active) | EC50 (Streptokinase A): > 150 µM (not active) | EC50 (BJ [7]): 3.08 µM (active) | IC50 (Estrogen receptor): 8.87 µM (active) | IC50 [8]: 0.771 µM (active) | EC50 (BJ [9]): 1.08 µM (inconclusive) | EC50 [10]: 2.36 µM (active) | EC50 (Streptococcus): 24.3 µM (active) | EC50 (BJ [11]): 0.562 µM (active)

Cc1ccc(N2C(=O)/C(=C\Nc3ccccc3-c3nnc(S)nc3O)c3ccccc3C2=O)c(C)c1
IC50 (Aminopeptidase N): 27.4 µM (active) | IC50 [12]: 39.9 µM (active) | IC50 (Cysteine protease ATG4B): 14 µM (active) | IC50 (Phospholipase A2): 10 µM (active) | IC50 [13]: 3.83 µM (active) | EC50 [14]: > 53 µM (inactive) | IC50 [15]: > 20 µM (inactive)

COc1ccccc1/C=C/C1=NC(=C\C=C/c2ccccc2)/C(=O)O1
IC50 (NS3): 24.1 µM (not active) | IC50 [16]: > 100 µM (active) | EC50 [17]: > 260 µM (inactive)
